Experimental findings from patent US8410144B2, “Substituted indolo-pyridinone compounds” (ArQule, Inc., priority 2009, dated 2013) are described below.

One assay concerns DLD-1. The assay is described as follows: MTS assay, DLD-1 cells. The assay is classed as cell-based. As to conditions: Homo sapiens, 72 hours, read-out: DLD-1, MTS cell kill % inhibition. The protocol: (§1) Cells were maintained at 37° C., 5% CO2 in DMEM media supplemented with 1% fetal bovine serum, penicillin/streptomycin and fungizone (Invitrogen). Cells were seeded into 96-well tissue culture plates at 3000 per well and cultured at 37° C. for 18 hours. Test compounds were dissolved and diluted to 300× in DMSO then diluted 1:40 in DMEM. Cells were incubated with test compounds for 72 hours followed by incubation with tetrazolium compound (3-(4,5-dimethylthiazol-2-yl)-5-(3-carboxymethoxyphenyl)-2-(4-sulfophenyl)-2H-tetrazolium, inner salt; MTS) and the electron coupling reagent, phenazine methosulfate (PMS) for 4 hours. […] The ability of compounds to inhibit cell growth in this assay is correlated with the reduction of dehydrogenase enzyme activity found in metabolically active cells. The measurement of the absorbance of the formazan was assessed using an ENVISION™ (Perkin Elmer) microplate reader at 492 nm. The calculated IC50 value is the concentration of the test compound that causes a 50% decrease in the absorbance.
Background: Tetrazolium dyes change colour on reduction, which living cells bring about.

The test system of another assay is KATO III. The assay is described as follows: MTS assay, KATO III cells. The assay is classed as cell-based. As to conditions: Homo sapiens, 72 hours, read-out: KATO III, MTS cell kill % inhibition. The protocol:
as §1

The subject of a further assay is MDA-MB-231. The assay is described as follows: MTS assay, MDA-MB-231 cells. The assay is classed as cell-based. As to conditions: Homo sapiens, 72 hours, read-out: MDA-MB-231, MTS cell kill % inhibition. The protocol:
as §1

The subject of the next assay is NCI-H1299. Briefly: MTS assay, NCI-H1299 cells. The assay is classed as cell-based. As to conditions: Homo sapiens, 72 hours, read-out: NCI-H1299, MTS cell kill % inhibition. The protocol:
as §1

In the next assay the target is IGF-1R (Homo sapiens, UniProt P08069). Briefly: IGFR1 activity assay (ELISA). The assay is classed as biochemical. As to conditions: read-out: IGF-1R, PCT INH (30 μM), ELISA. How it is done:
The disclosed compounds were assayed for their ability to inhibit insulin-like growth factor receptor-1 (IGFR1). Nunc Maxisorb plates were coated with streptavidin by overnight incubation with 100 μL per well of 1 μg/ml Streptavidin in DPBS. Prior to the start of the experiment, the plates were washed with TBST (3×200 μL) and blocked for at least 1 hour by adding 150 μL of 5% BSA/TBST. The plates were washed with TBST (3×200 μL/well) and left to dry immediately before the capture step.
The disclosed test articles and controls (Staurosporine) were prepared using the following assay buffer at 3× desired final concentration (50 mM Tris-HCl, 0.02 mg/ml BSA, 10 mM MgCl2, 0.1 mM Na3VO4, 1 mM EGTA, 12.5 μM ATP, 0.01% NP-40, 1 mM DTT in 10% glycerol/water). 20 μL of the test compounds (or control), 20 μL IGF1R (0.33 ng/μL final concentration), and 20 μL of Pyk-2 (0.05 ng/μL final concentration) were rapidly added to the reaction plate. The plate was incubated at room temperature for one hour.
50 μL was transferred from the reaction plate to the streptavidin coated plate. The capture plate was incubated at room temperature for 30 minutes, then washed with TBST three times. 100 μL/well of Cell Signaling anti-phospho tyrosine was added to the capture plate at a dilution of 1:3000 in 2% BSA/TBST. The plate was incubated for one hour at room temperature then washed 6× with TBST. 100 μL/well of alkaline phosphatase tagged goat anti mouse antibody was added to the capture plate at a dilution of 1:4000 in 2% BSA/TBST. The plate was incubated for one hour at room temperature then washed with TBST six times.
The fluorescent readout is initiated by the addition of 100 μL/well of Attophos reagent (6 mg/10 mL). The reading is done on the Perkin Elmer Envision system.
On the technique in general: ELISA stands for enzyme-linked immunosorbent assay.

Structures are written as SMILES.

Chain of IGF-1R (P08069 31-1367): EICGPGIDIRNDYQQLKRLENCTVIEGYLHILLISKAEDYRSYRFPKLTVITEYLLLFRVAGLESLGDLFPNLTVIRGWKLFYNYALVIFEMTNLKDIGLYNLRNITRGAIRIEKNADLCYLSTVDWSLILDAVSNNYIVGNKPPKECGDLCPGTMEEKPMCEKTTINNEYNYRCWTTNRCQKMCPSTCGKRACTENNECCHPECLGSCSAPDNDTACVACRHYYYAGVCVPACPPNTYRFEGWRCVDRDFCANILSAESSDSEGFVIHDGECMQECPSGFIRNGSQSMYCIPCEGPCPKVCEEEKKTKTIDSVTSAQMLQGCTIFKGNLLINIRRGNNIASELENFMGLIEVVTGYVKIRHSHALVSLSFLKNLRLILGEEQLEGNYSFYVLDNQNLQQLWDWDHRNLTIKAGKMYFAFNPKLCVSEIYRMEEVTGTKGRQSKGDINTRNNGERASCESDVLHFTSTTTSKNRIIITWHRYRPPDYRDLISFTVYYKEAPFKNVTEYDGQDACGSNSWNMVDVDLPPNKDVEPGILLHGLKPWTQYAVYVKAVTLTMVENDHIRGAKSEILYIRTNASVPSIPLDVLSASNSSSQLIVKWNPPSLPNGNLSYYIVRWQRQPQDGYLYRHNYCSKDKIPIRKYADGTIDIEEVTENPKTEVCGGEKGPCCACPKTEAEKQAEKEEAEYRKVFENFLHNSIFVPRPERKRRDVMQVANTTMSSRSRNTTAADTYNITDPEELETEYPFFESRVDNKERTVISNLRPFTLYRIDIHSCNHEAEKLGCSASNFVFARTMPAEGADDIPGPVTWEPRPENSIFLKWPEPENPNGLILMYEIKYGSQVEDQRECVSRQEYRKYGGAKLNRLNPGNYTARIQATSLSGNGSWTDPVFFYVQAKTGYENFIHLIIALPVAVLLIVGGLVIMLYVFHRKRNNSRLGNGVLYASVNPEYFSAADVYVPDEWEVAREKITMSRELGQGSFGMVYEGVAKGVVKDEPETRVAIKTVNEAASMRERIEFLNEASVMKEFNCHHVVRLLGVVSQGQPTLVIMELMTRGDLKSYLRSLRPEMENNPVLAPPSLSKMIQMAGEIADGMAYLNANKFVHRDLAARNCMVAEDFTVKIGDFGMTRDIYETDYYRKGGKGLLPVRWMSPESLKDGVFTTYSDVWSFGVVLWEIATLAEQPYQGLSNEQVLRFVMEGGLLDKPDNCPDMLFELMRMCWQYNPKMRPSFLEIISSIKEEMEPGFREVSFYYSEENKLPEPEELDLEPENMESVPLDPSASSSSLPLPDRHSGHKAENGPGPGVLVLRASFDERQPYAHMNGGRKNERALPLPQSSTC

For the compound `COc1cccc(-c2c(-c3ccc[nH]c3=O)[nH]c3ccc(C(=O)NCCCN4CCOCC4)cc23)c1` [Compound 63, 3-(3-methoxyphenyl)-N-(3-morpholin-4-ylpropyl)-2-(2-oxo-1,2-dihydropyridin-3-yl)-1H-indole-5-carboxamide], the inhibition at 10 µM with DLD-1 is 50 to 79%; in the assay with KATO III, 80 to 100%; with MDA-MB-231 it was 50 to 79%; in the assay with NCI-H1299 it was 80 to 100%. Moreover, at IGF-1R, the inhibition at 30 µM is 80 to 100%.

Regarding `COc1ccc(C(C)C)cc1-c1c(-c2ccc[nH]c2=O)[nH]c2ccc(C(=O)NCCCN3CCOCC3)cc12` [Compound 64, 3-(5-isopropyl-2-methoxyphenyl)-N-(3-morpholin-4-ylpropyl)-2-(2-oxo-1,2-dihydropyridin-3-yl)-1H-indole-5-carboxamide], the inhibition at 10 µM in the assay on DLD-1, with KATO III, in the assay with MDA-MB-231 and in the assay with NCI-H1299 was under 50% each time. The inhibition at 30 µM at IGF-1R lay within 80 to 100%.

In the case of `Cc1ccc(-c2c(-c3ccc[nH]c3=O)[nH]c3ccc(C(=O)NCCCN4CCOCC4)cc23)cc1F` [Compound 67, 3-(3-fluoro-4-methylphenyl)-N-(3-morpholin-4-ylpropyl)-2-(2-oxo-1,2-dihydropyridin-3-yl)-1H-indole-5-carboxamide], the inhibition at 10 µM lay in the range of 50 to 79% in the assay on DLD-1, 80 to 100% in the assay on KATO III, 50 to 79% with MDA-MB-231 and 80 to 100% in the assay with NCI-H1299. Besides, the inhibition at 30 µM on IGF-1R lay within 80 to 100%.

Consider `O=C(NCCCN1CCOCC1)c1ccc2[nH]c(-c3ccc[nH]c3=O)c(-c3ccc(F)cc3)c2c1` [Compound 68, 3-(4-fluorophenyl)-N-(3-morpholin-4-ylpropyl)-2-(2-oxo-1,2-dihydropyridin-3-yl)-1H-indole-5-carboxamide], for which the inhibition at 10 µM with DLD-1 is under 50%; with KATO III it was under 50%; in the assay on MDA-MB-231, under 50%; in the assay with NCI-H1299, 50 to 79%. For the same compound, the inhibition at 30 µM at IGF-1R is 80 to 100%.

Turning to `O=C(NCCCN1CCOCC1)c1ccc2[nH]c(-c3ccc[nH]c3=O)c(-c3ccc(Cl)cc3)c2c1` [Compound 69, 3-(4-chlorophenyl)-N-(3-morpholin-4-ylpropyl)-2-(2-oxo-1,2-dihydropyridin-3-yl)-1H-indole-5-carboxamide], the inhibition at 10 µM with DLD-1 is under 50%; in the assay with KATO III it was under 50%; in the assay with MDA-MB-231, 50 to 79%; with NCI-H1299, under 50%. Moreover, the inhibition at 30 µM on IGF-1R was 80 to 100%.

As to `COc1ccc(-c2c(-c3ccc[nH]c3=O)[nH]c3ccc(C(=O)NCCCN4CCOCC4)cc23)cc1OC` [Compound 73, 3-(3,4-dimethoxyphenyl)-N-(3-morpholin-4-ylpropyl)-2-(2-oxo-1,2-dihydropyridin-3-yl)-1H-indole-5-carboxamide], the inhibition at 10 µM in the assay with DLD-1, in the assay on KATO III, with MDA-MB-231 and in the assay on NCI-H1299 was under 50% in each case. Moreover, on IGF-1R, the inhibition at 30 µM is 80 to 100%.

As to `O=C(NCCCN1CCOCC1)c1ccc2[nH]c(-c3ccc[nH]c3=O)c(-c3csc4ccccc34)c2c1` [Compound 74, 3-(1-benzothien3-yl)-N-(3-morpholin-4-ylpropyl)-2-(2-oxo-1,2-dihydropyridin-3-yl)-1H-indole-5-carboxamide], the inhibition at 10 µM with DLD-1 lay in the range of 50 to 79%; in the assay on KATO III, 80 to 100%; in the assay on MDA-MB-231, 50 to 79%; in the assay on NCI-H1299, 50 to 79%. The inhibition at 30 µM at IGF-1R lay in the range of 80 to 100%.

Turning to `O=C(NCCCN1CCOCC1)c1ccc2[nH]c(-c3ccc[nH]c3=O)c(-c3ccc(F)c(Cl)c3)c2c1` [Compound 76, 3-(3-chloro-4-fluorophenyl)-N-(3-morpholin-4-ylpropyl)-2-(2-oxo-1,2-dihydropyridin-3-yl)-1H-indole-5-carboxamide], the inhibition at 10 µM in the assay on DLD-1, in the assay on KATO III, with MDA-MB-231 and in the assay with NCI-H1299 was 80 to 100% throughout. The inhibition at 30 µM at IGF-1R was under 50%.
